# Experimental data taken from publication PMC4157719, “Arabidopsis membrane-associated acyl-CoA-binding protein ACBP1 is involved in stem cuticle formation” (Journal of Experimental Botany, 2014).
# Target: T1, rACBP1 ((His)6-tagged recombinant AtACBP1) (Arabidopsis thaliana, UniProt Q9SM23)
# T1 construct: gene ACBP1; (His)6-tagged, soluble fraction of E. coli BL21(DE3), Ni-NTA purified
# T1 sequence (Q9SM23 1-338): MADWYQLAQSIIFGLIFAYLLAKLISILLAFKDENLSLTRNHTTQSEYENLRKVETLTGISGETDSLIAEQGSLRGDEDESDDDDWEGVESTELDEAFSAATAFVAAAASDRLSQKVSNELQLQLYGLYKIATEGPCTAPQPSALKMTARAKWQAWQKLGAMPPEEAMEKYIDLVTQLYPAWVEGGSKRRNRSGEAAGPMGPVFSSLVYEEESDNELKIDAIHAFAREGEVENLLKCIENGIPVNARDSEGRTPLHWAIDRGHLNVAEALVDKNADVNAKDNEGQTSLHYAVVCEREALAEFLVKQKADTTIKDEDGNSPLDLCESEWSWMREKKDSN
# Assay: isothermal titration calorimetry
# Assay type: binding
# Conditions: not given
# Source text: isothermal titration calorimetry on rACBP1 ((His)6-tagged recombinant AtACBP1)
row,Kd [nM],Compound
1,1940 ± 120,"CCCCCCCCCCCCCCCCCCCCCCCCCC(=O)SCCNC(=O)CCNC(=O)[C@H](O)C(C)(C)COP(=O)(O)OP(=O)(O)OC[C@H]1O[C@@H](n2cnc3c(N)ncnc32)[C@H](O)[C@@H]1OP(=O)(O)O [C26:0, C26:0-CoA]"
2,1690 ± 110,"CCCCCCCCCCCCCCCCCCCCCCCCC(=O)SCCNC(=O)CCNC(=O)[C@H](O)C(C)(C)COP(=O)(O)OP(=O)(O)OC[C@H]1O[C@@H](n2cnc3c(N)ncnc32)[C@H](O)[C@@H]1OP(=O)(O)O [C25:0, C25:0-CoA]"
3,2140 ± 130,"CCCCCCCCCCCCCCCCCCCCCCCC(=O)SCCNC(=O)CCNC(=O)[C@H](O)C(C)(C)COP(=O)(O)OP(=O)(O)OC[C@H]1O[C@@H](n2cnc3c(N)ncnc32)[C@H](O)[C@@H]1OP(=O)(O)O [C24:0, C24:0-CoA]"

# Same assay, conditions: 30 °C; single binding site model
row,Kd [nM],Compound
1,440 ± 10,C18:3-CoA
2,830 ± 40,C18:2-CoA
3,760 ± 150,C18:1-CoA
